Results: EP4691473A1, “PLATYCLADUS ORIENTALIS EXTRACT, PREPARATION METHOD THEREFOR AND USE THEREOF” (Beijing Academy of TCM Beauty Supplements Co., Ltd., priority 2023, dated 2024)

Assays:
[1] = biological target: 5α-reductase (Mus musculus, UniProt Q68FF9); experiment: 5α-Reductase Inhibition Test (decrease in absorbance at 340 nm, NADPH/testosterone); assay type: biochemical; details: for A: absorbance decrease at 340 nm
Experimental: • (1) Test drug: Sample of Example 52 • (2) Positive control drug: Finasteride, a product of Merck Sharp & Dohme Limited; Appearance: Film-coated tablets, white after removal of the coating; Specification: 5 mg/tablet; Batch number: 0022050. Storage conditions: light-shielded, airtight, and stored at room temperature. • (3) Drug preparation: The sample of Example 52 was tested at 10 concentrations: 35 mg/mL (solute: the sample of Example 52, solvent: 20% aqueous ethanol solution) was adopted as the initial concentration, and nine 2.5-fold gradient dilutions were made by using 20% aqueous ethanol solution; and five 2-fold gradient dilutions of the positive control finasteride were made by using anhydrous ethanol. • (4) Reagents: Reduced coenzyme II (NADPH), a product of Sigma, Catalog number N7505, Batch number 041939; testosterone (T), a product of Merck, Catalog number T-037; Batch number FE03112002; Tris buffer: Shanghai Yuanye Biotechnology Co., Ltd., Batch number J17HR10516A. • (5) Test instrument: ZDN microplate reader, a product of BioTek.
Mouse liver was obtained by dissection, and was added into a Tris buffer at a ratio of 1:5 for homogenization at 0°C. The homogenized liver was centrifuged at 10000g for 15 minutes, the supernatant was centrifuged at 55000g for another hour, and then the supernatant was placed at 4°C for later use. Reagents and samples were added according to the reaction system. Sample of Example 52 and finasteride sample at each dilution were added 4 times. After incubation at 37°C for 60 minutes, the decrease in absorbance ΔA at 340nm was measured. Inhibition rate (%) = (blank ΔA−sample ΔA)/(blank ΔA) × 100 [formula]
The 5α-reductase reaction system is shown in Table 16: Table 16 Reagent amount for the reaction system (µL)

[2] = tested on: Malassezia; experiment: Malassezia antibacterial test (microbroth method, OD600 after 72 hours); assay type: cell-based; details: Ketoconazole 4µg/mL, read-out: Malassezia inhibition rate, positive control
Experimental: A culture medium and Malassezia were mixed thoroughly by shaking until no sediment was present at the bottom. A sterile syringe was used to pipette 200-800 µL of the bacterial suspension into fresh culture medium and incubate at 30°C in a biochemical incubator. After 2-3 days of incubation, the sample was subcultured.
A sterile malt extract culture medium was transferred into a sterile 50mL centrifuge tube. The sterile malt extract culture medium was centrifuged at 25°C and 3500 rpm for 10 minutes. The supernatant was transferred to another sterile 50mL centrifuge tube for later use.
Each sample was diluted with fresh culture medium to a concentration of 50 mg/mL, 40 mg/mL, 30 mg/mL, 20 mg/mL, 10 mg/mL, or 5 mg/mL.
The culture medium and Malassezia were mixed thoroughly by shaking and transferred to a sterile 50mL centrifuge tube. The mixture was centrifuged at 25°C and 1000 rpm for 30 seconds. The supernatant was transferred to a sterile 50 mL centrifuge tube and centrifuge at 25°C and 3500 rpm for 10 minutes.
A microplate reader was set at a wavelength of 600 nm. […] The OD600 value of the bacterial suspension was detected at 600 nm. […]
The required volume of bacterial suspension was calculated. […]
The sterile 96-well culture plate was placed in a 30°C incubator. After 72 hours of incubation, the absorbance at 600nm was recorded. […]

Chain of 5α-reductase (Q68FF9 whole entry): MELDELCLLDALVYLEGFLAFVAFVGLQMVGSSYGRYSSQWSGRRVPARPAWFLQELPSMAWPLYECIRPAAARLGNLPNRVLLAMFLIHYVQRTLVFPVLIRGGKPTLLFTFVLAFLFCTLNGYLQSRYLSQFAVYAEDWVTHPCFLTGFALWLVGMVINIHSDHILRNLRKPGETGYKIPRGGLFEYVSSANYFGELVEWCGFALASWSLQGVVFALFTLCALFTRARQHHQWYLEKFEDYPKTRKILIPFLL

Compound	inhibition at 0.003 µg/mL ([1]; Finasteride 0.003 µg/mL, read-out: Inhibition rate)	inhibition at 0.006 µg/mL ([1]; Finasteride 0.006 µg/mL, read-out: Inhibition rate)	inhibition at 0.012 µg/mL ([1]; Finasteride 0.012 µg/mL, read-out: Inhibition rate)	inhibition at 0.025 µg/mL ([1]; Finasteride 0.025 µg/mL, read-out: Inhibition rate)	inhibition at 0.05 µg/mL ([1]; Finasteride 0.050 µg/mL, read-out: Inhibition rate)	A ([1]; Finasteride 0.003 µg/mL)	A ([1]; Finasteride 0.012 µg/mL)	A ([1]; Finasteride 0.025 µg/mL)	A ([1]; Finasteride 0.050 µg/mL)	inhibition at 4 µg/mL [2]
CC(C)(C)NC(=O)[C@H]1CC[C@H]2[C@@H]3CC[C@H]4NC(=O)C=C[C@]4(C)[C@H]3CC[C@]12C [Finasteride]	6.12%	15.4%	26.3%	39.2%	63.1%	0.10	0.08	0.07	0.04	
CC(=O)N1CCN(c2ccc(OCC3COC(Cn4ccnc4)(c4ccc(Cl)cc4Cl)O3)cc2)CC1 (stereo not shown) [Ketoconazole]										95 ± 3.59%
